Data from paper PMC10818821, “Towards a New Generation of Hormone Therapies: Design, Synthesis and Biological Evaluation of Novel 1,2,3-Triazoles as Estrogen-Positive Breast Cancer Therapeutics and Non-Steroidal Aromatase Inhibitors” (Pharmaceuticals, 2024).

Target: T1, aromatase (CYP19) (Homo sapiens, UniProt P11511)
T1 construct: gene CYP19A1
T1 sequence (P11511 1-503): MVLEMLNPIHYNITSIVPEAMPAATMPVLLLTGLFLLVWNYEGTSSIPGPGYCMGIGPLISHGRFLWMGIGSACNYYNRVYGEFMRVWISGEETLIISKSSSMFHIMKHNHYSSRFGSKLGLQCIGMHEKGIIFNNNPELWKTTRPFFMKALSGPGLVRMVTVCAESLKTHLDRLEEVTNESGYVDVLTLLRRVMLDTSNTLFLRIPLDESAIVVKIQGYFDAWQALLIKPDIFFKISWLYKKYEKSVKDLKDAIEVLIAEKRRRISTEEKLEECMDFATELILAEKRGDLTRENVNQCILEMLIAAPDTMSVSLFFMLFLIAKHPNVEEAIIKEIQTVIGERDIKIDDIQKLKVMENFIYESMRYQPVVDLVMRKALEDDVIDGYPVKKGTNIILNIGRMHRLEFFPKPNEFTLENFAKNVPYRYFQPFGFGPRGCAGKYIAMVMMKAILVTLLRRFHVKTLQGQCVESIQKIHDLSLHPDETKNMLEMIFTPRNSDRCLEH
Test: fluorogenic aromatase activity assay (Abcam kit), dose-response […]
Type: biochemical

| IC50 | SMILES |
| --- | --- |
| 3.62 µM | COc1ccc(-n2nnc(C(C)=NN=c3sc(C(C)=O)nn3-c3ccccc3)c2C)cc1 [compound 4, 1-(5-((1-(1-(4-Methoxyphenyl)-5-methyl-1H-1,2,3-triazol-4-yl)ethylidene)hydrazono)-4-phenyl-4,5-dihydro-1,3,4-thiadiazol-2-yl)ethan-1-one] |
| 1.99 µM | COc1ccc(-n2nnc(C(C)=NN=c3sc(C(C)=O)nn3-c3ccc(C)cc3)c2C)cc1 [compound 5, 1-(5-((1-(1-(4-Methoxyphenyl)-5-methyl-1H-1,2,3-triazol-4-yl)ethylidene)hydrazono)-4-(p-tolyl)-4,5-dihydro-1,3,4-thiadiazol-2-yl)ethan-1-one] |
| 3.57 µM | CCOC(=O)c1nn(-c2ccccc2)c(=NN=C(C)c2nnn(-c3ccc(OC)cc3)c2C)s1 [compound 6, Ethyl 5-((1-(1-(4-Methoxyphenyl)-5-methyl-1H-1,2,3-triazol-4-yl)ethylidene)hydrazono)-4-phenyl-4,5-dihydro-1,3,4-thiadiazole-2-carboxylate] |
| 2.99 µM | CCOC(=O)c1nn(-c2ccc(C)cc2)c(=NN=C(C)c2nnn(-c3ccc(OC)cc3)c2C)s1 [compound 7, Ethyl 5-((1-(1-(4-Methoxyphenyl)-5-methyl-1H-1,2,3-triazol-4-yl)ethylidene) hydrazono)-4-(p-tolyl)-4,5-dihydro-1,3,4-thiadiazole-2-carboxylate] |
